The test relates to L. donovani-infected THP-1 macrophages, intracellular amastigote imaging. As to the kind of experiment: intracellular L. donovani amastigote inhibition, imaging, THP-1 host macrophages, host toxicity (AID 1159564).
The mark [1] stands for this setting: measured here: THP-1 host cell toxicity.
Setting [2] is: measured here: amastigotes per macrophage.

The source made the active and inactive calls. No rule for the calls is given here.

In general, IC50 refers to the concentration needed to halve the response being measured. For `CC(C)S(=O)(=O)c1ccc(-c2cnc(N)c3cc(-c4ccnc(N)n4)ccc23)cc1`, the half-inhibitory concentration (IC50) is 1.3 µM. Also, the 50% inhibitory concentration (IC50) under setting [1] was determined as 2.5 µM. For the same compound, under setting [2], the IC50 is 0.5 µM.
The corresponding values for `CCOc1ccc(CC(=O)N2c3ccccc3CC2C(=O)NC)cc1` (configuration not stated) are > 50 µM (inactive), over 50 µM and over 50 µM.
The corresponding values for `O=c1[nH]c(NCCCNCc2cc(Br)cc(Br)c2)nc2ccsc12` are 5 µM, 16 µM and 2.5 µM.
In the case of `CNS(=O)(=O)c1ccccc1Nc1nc(Nc2ccnn2C)ncc1Cl`, the concentration for half-maximal inhibition (IC50) is 0.63 µM. The compound further came in with an IC50 under setting [1] of 0.32 µM. This compound gave an IC50 under setting [2] of 0.4 µM.
The corresponding values for `Nc1nccc(-c2csc(Nc3ccc(Cl)cc3)n2)n1` are 1 µM, over 50 µM and 1 µM.
The corresponding values for `NC(=O)c1ncccc1Nc1nc(NC2CCC(O)CC2)ncc1Br` (configuration not stated) are 1.3 µM, 0.4 µM and 0.63 µM.
For `Cc1c(C#N)c([N+](=O)[O-])nn1Cc1cccc(Cl)c1Cl` the same measures were > 50 µM (inactive), 16 µM and 16 µM.
Consider `COCCn1cnc2cc(NC(=O)C3CCCCC3)cc(C(=O)N3CCc4sccc4C3)c21`, for which the IC50 is > 50 µM (inactive). The compound further had a concentration for half-maximal inhibition (IC50) under setting [1] of over 50 µM. In addition, under setting [2], the IC50 is over 50 µM.
For `Cc1ccc(S(=O)(=O)Nc2ccc(CN3CCN(C(=O)c4cccc(C)c4)CC3)cc2)cc1`, the half-maximal inhibitory concentration (IC50) is 40 µM. The compound also registered an IC50 under setting [1] of 40 µM. Under setting [2], this compound registered an IC50 of 32 µM.
Regarding `Cc1ccc(NC(=O)c2ccc([N+](=O)[O-])s2)cc1S(=O)(=O)N1CCOCC1`, the half-inhibitory concentration (IC50) is 3.2 µM. Also, under setting [1], the IC50 came to 40 µM. In addition, under setting [2], the half-inhibitory concentration (IC50) was 2 µM.
Turning to `COc1cnc2ccc(=O)n(CCN3CCC(NC(=O)c4ccc(Cl)cc4)CC3)c2c1`, the IC50 is > 50 µM (inactive). Under setting [1], the half-maximal inhibitory concentration (IC50) was over 50 µM. The compound also came in with an IC50 under setting [2] of 4 µM.
As to `Cc1cccc(Nc2nc(-c3ccccn3)cs2)n1`, the half-maximal inhibitory concentration (IC50) is 3.2 µM. Moreover, under setting [1], the IC50 was over 50 µM. Besides, the IC50 under setting [2] was 2 µM.
The corresponding values for `Cc1cccnc1CN1CCN(CCCOc2ccc(-c3ccc(C(N)=O)cc3)cc2)CC1` are 32 µM, 13 µM and 10 µM.
For `COc1ccc(CNc2nsc3ccccc23)cc1OC` the same measures were 6.3 µM, 25 µM and 5 µM.
The corresponding values for `COc1cccc(-c2cc(C(F)(F)F)nc(-n3ccc([N+](=O)[O-])n3)n2)c1` are > 50 µM (inactive), over 50 µM and over 50 µM.
For the compound `CC(=O)Nc1ccc(-c2noc(CC3CCCN(Cc4cccc(F)c4C)C3)n2)cc1` (configuration not stated), the IC50 was 32 µM. Moreover, under setting [1], the concentration for half-maximal inhibition (IC50) is over 50 µM. Under setting [2], the concentration for half-maximal inhibition (IC50) came to 13 µM.
The corresponding values for `CC(C(=O)Nc1ccc(Br)cc1)N1CCN(c2ccc([N+](=O)[O-])cc2)CC1` (configuration not stated) are > 50 µM (inactive), over 50 µM and over 50 µM.
The corresponding values for `Cc1cc(Nc2cc(C3CC3)[nH]n2)nc(N2CCCC2)n1` are 0.16 µM, 0.13 µM and 0.05 µM.
The corresponding values for `O=C(NCC(c1cccs1)N1CCOCC1)c1ccc([N+](=O)[O-])o1` (configuration not stated) are 25 µM, 25 µM and 16 µM.
Take `CC(C)(C)C(O)(CCc1ccc(Cl)cc1)Cn1cncn1` (configuration not stated): the IC50 is > 50 µM (inactive). Under setting [1], the IC50 is over 50 µM. Moreover, the IC50 under setting [2] is over 50 µM.
Consider `Cc1cc2nc(N3CC[C@H]3C(N)=O)nc(Nc3cc(C4CC4)[nH]n3)c2s1`, for which the IC50 was 2 µM. The same compound showed a half-maximal inhibitory concentration (IC50) under setting [1] of 0.79 µM. Under setting [2], this compound came in with a 50% inhibitory concentration (IC50) of 1.3 µM.
The corresponding values for `O=C(Nc1cccc(Cl)c1)N1CCCCC1c1cccnc1` (configuration not stated) are > 50 µM (inactive), over 50 µM and over 50 µM.
The corresponding values for `CCS(=O)(=O)c1cccc(C(=O)Nc2nc(-c3ccccn3)cs2)c1` are 4 µM, 20 µM and 3.2 µM.
The corresponding values for `O=C(COc1ncnc2cc([N+](=O)[O-])ccc12)NC(=O)NC1CCCCC1` are > 50 µM (inactive), over 50 µM and over 50 µM.
As for `O=C(Nc1nc2ccccc2[nH]1)c1c(O)c2cccc3c2n(c1=O)CC3`, the half-maximal inhibitory concentration (IC50) was 2 µM. The compound also gave an IC50 under setting [1] of over 50 µM. For the same compound, the concentration for half-maximal inhibition (IC50) under setting [2] amounted to 1 µM.
For `CC(=O)Nc1ccc(Nc2nccc(-c3cnn4ncccc34)n2)cc1C(F)(F)F` the same measures were 0.025 µM, 0.01 µM and 0.016 µM.
Take `O=C(c1cccc(Cl)c1Cl)N1CCn2c1nc(-c1ccncc1)cc2=O`: the IC50 is > 50 µM (inactive). Further, the IC50 under setting [1] is over 50 µM. This compound returned an IC50 under setting [2] of 32 µM.
For `O=C(Cc1ccccc1)Nc1ccccc1C(=O)Nc1nccs1` the same measures were > 50 µM (inactive), over 50 µM and over 50 µM.
As for `Cc1ccc(Nc2nc(N)nc(CNC(c3nc4ccccc4[nH]3)C(C)C)n2)cc1` (configuration not stated), the half-inhibitory concentration (IC50) was 2 µM. Moreover, the 50% inhibitory concentration (IC50) under setting [1] turned out to be 25 µM. Also, the IC50 under setting [2] came out at 1.3 µM.
The corresponding values for `C=CCN(Cc1cccs1)C(=O)CSc1nnc(-c2ccc3c(c2)OCO3)o1` are 3.2 µM, over 50 µM and 1.3 µM.
The corresponding values for `COc1ccc(-c2ccc3nnc(-c4ccc(O)c(OC)c4)n3c2)cn1` are > 50 µM (inactive), over 50 µM and over 50 µM.
Consider `CN(Cc1ccc(F)cc1)c1ccc(OCC(=O)N2CCCCC2c2cccnc2)nn1` (configuration not stated), for which the IC50 is > 50 µM (inactive). This compound showed an IC50 under setting [1] of 32 µM. Under setting [2], this compound registered an IC50 of over 50 µM.
Turning to `O=c1cc(CSc2ccc(Cl)cc2)nc(-c2ccccn2)[nH]1`, the IC50 is 5 µM. The concentration for half-maximal inhibition (IC50) under setting [1] was found to be 4 µM. Further, under setting [2], the IC50 stood at 2 µM.
Turning to `COc1ccc(-c2cc(C)no2)cc1S(=O)(=O)Nc1ccc(F)c(Cl)c1`, the IC50 was 25 µM. Under setting [1], this compound returned an IC50 of 32 µM. The compound further displayed a 50% inhibitory concentration (IC50) under setting [2] of 20 µM.

For the origin of these results see PubChem BioAssay AID1159564 (GlaxoSmithKline (GSK), 2015).
